According to patent US8414878B2, “Irilis biopreparation based on bacillus-strain bacteria, bacillus subtilis and bacillus licheniformis contained therein” (priority 2005, dated 2013):

Columns and labels:
B. subtilis VKPMB-8611 = experiment: Sensitivity to antibiotics, delay zones of culture growth; type: cell-based, Bacillus subtilis; conditions: strain B. subtilis VKPMB-8611
[1] = system: B. licheniformis VKPM B-8610; experiment: as above; type: cell-based, Bacillus licheniformis; conditions: strain B. licheniformis VKPM B-8610

| Compound | Diameter of delay zones of cultures growth (B. subtilis VKPMB-8611) | Diameter of delay zones of cultures growth [1] |
| --- | --- | --- |
| NCC[C@H](O)C(=O)N[C@@H]1C[C@H](N)[C@@H](O[C@H]2O[C@H](CN)[C@@H](O)[C@H](O)[C@H]2O)[C@H](O)[C@H]1O[C@H]1O[C@H](CO)[C@@H](O)[C@H](N)[C@H]1O [Amicacin] | 22 ± 0.3 mm | 17 + 0.2 mm |
| CC1(C)S[C@@H]2[C@H](NC(=O)[C@H](N)c3ccc(O)cc3)C(=O)N2[C@H]1C(=O)O [Amoscipillin] | 19 ± 0.2 mm | 16 + 0.1 mm |
| CC1(C)S[C@@H]2[C@H](NC(=O)[C@H](N)c3ccccc3)C(=O)N2[C@H]1C(=O)O [Ampicillin] | 11 ± 0.2 mm | 0 mm |
| CC1(C)S[C@@H]2[C@H](NC(=O)[C@H](NC(=O)N3CCNC3=O)c3ccccc3)C(=O)N2[C@H]1C(=O)O [Azlocillin] | 19 ± 0.1 mm | 16 + 0.1 mm |
| CC1(C)S[C@@H]2[C@H](NC(=O)Cc3ccccc3)C(=O)N2[C@H]1C(=O)O [Benzylpenicillin] | 7 ± 0.1 mm | 3 ± 0.2 mm |
| CC1(C)S[C@@H]2[C@H](NC(=O)C(C(=O)O)c3ccccc3)C(=O)N2[C@H]1C(=O)O (stereo partly drawn) [Carbenicillin] | 23 ± 0.5 mm | 20 + 0.1 mm |
| Cn1nnnc1SCC1=C(C(=O)O)N2C(=O)[C@@H](NC(=O)[C@H](O)c3ccccc3)[C@H]2SC1 [Cefamandole] | 35 ± 0.3 mm | 15 + 0.1 mm |
| Cc1nnc(SCC2=C(C(=O)O)N3C(=O)[C@@H](NC(=O)Cn4cnnn4)[C@H]3SC2)s1 [Cefazolin] | 25 ± 0.2 mm | 19 + 0.2 mm |
| CCN1CCN(C(=O)N[C@@H](C(=O)N[C@@H]2C(=O)N3C(C(=O)O)=C(CSc4nnnn4C)CS[C@H]23)c2ccc(O)cc2)C(=O)C1=O [Cefoperazone] | 15 ± 0.2 mm | 13 + 0.1 mm |
| CO/N=C(\C(=O)N[C@@H]1C(=O)N2C(C(=O)O)=C(COC(C)=O)CS[C@H]12)c1csc(N)n1 [Cefotaxime] | 15 ± 0.1 mm | 9 + 0.1 mm |
| CO[C@@]1(NC(=O)Cc2cccs2)C(=O)N2C(C(=O)O)=C(COC(N)=O)CS[C@@H]21 [Cefoxitin] | 18 ± 0.1 mm | 13 + 0.1 mm |
| CC(C)(O/N=C(\C(=O)N[C@@H]1C(=O)N2C(C(=O)[O-])=C(C[n+]3ccccc3)CS[C@H]12)c1csc(N)n1)C(=O)O [Ceftazidime] | 6 ± 0.3 mm | 13 + 02 mm |
| CO/N=C(\C(=O)N[C@@H]1C(=O)N2C(C(=O)O)=CCS[C@H]12)c1csc(N)n1 [Ceftizoxime] | 3 ± 0.1 mm | 11 ± 0.1 mm |
| CO/N=C(\C(=O)N[C@@H]1C(=O)N2C(C(=O)O)=C(CSc3nc(=O)c(=O)[nH]n3C)CS[C@H]12)c1csc(N)n1 [Ceftriaxone] | 20 + 0.4 mm | 12 + 02 mm |
| CO/N=C(\C(=O)N[C@@H]1C(=O)N2C(C(=O)O)=C(COC(N)=O)CS[C@H]12)c1ccco1 [Cefuroxime] | 2 ± 0.1 mm | 3 ± 0.1 mm |
| CC(=O)OCC1=C(C(=O)O)N2C(=O)[C@@H](NC(=O)Cc3cccs3)[C@H]2SC1 [Cephalothin] | 35 ± 0.1 mm | 21 + 0.3 mm |
| O=C(N[C@H](CO)[C@H](O)c1ccc([N+](=O)[O-])cc1)C(Cl)Cl [Chloramphenicol] | 18 ± 0.3 mm | 10 ± 0.1 mm |
| CCC[C@@H]1C[C@@H](C(=O)N[C@@H]([C@H]2O[C@H](SC)[C@H](O)[C@@H](O)[C@H]2O)[C@H](C)Cl)N(C)C1 [Clindamycin] | 9 + 0.2 mm | 12 + 0.1 mm |

| Compound | Diameter of delay zones of cultures growth (B. subtilis VKPMB-8611) | Diameter of delay zones of cultures growth [1] |
| --- | --- | --- |
| C[C@@H](O)[C@H]1C(=O)N2C(C(=O)O)=C(SCCN=CN)C[C@H]12 [Imipenems] | 38 ± 0.2 mm | 30 + 0.1 mm |
| NC[C@H]1O[C@H](O[C@H]2[C@H](O)[C@@H](O[C@H]3O[C@H](CO)[C@@H](O)[C@H](N)[C@H]3O)[C@H](N)C[C@@H]2N)[C@H](O)[C@@H](O)[C@@H]1O [Kanamycin] | 22 ± 0.2 mm | 21 + 0.1 mm |
| COc1cccc(OC)c1C(=O)N[C@@H]1C(=O)N2[C@@H]1SC(C)(C)[C@@H]2C(=O)O [Methicillin] | 20 ± 0.1 mm | 10 ± 0D |
| CC1(C)S[C@@H]2[C@H](NC(=O)[C@H](NC(=O)N3CCN(S(C)(=O)=O)C3=O)c3ccccc3)C(=O)N2[C@H]1C(=O)O [Mezlocillin] | 21 ± 0.2 mm | 15 + 0.2 mm |
| CO[C@@]1(NC(=O)C(C(=O)O)c2ccc(O)cc2)C(=O)N2C(C(=O)O)=C(CSc3nnnn3C)CO[C@@H]21 (stereo partly drawn) [Mocsalactam] |  | 12 + 03 mm |
| CCn1cc(C(=O)O)c(=O)c2ccc(C)nc21 [Nalidixic acid] | 21 ± 0.1 mm | 15 + 0.1 mm |
| O=C1CN(/N=C/c2ccc([N+](=O)[O-])o2)C(=O)N1 [Nitrofurantoin] | 15 + 0.2 mm | 20 + 0.1 mm |
| CCn1cc(C(=O)O)c(=O)c2cc(F)c(N3CCNCC3)cc21 [Norfloxacin] | 24 ± 0.2 mm | 25 + 0.2 mm |
| Cc1onc(-c2ccccc2)c1C(=O)N[C@@H]1C(=O)N2[C@@H]1SC(C)(C)[C@@H]2C(=O)O [Oxacillin] | 15 ± 0.3 mm | 11 + 0.1 mm |
| CCN1CCN(C(=O)N[C@@H](C(=O)N[C@@H]2C(=O)N3[C@@H]2SC(C)(C)[C@@H]3C(=O)O)c2ccccc2)C(=O)C1=O [Piperacillin] | 15 + 03 mm | 11 + 0.1 mm |
| CN(C)[C@@H]1C(O)=C(C(N)=O)C(=O)[C@@]2(O)C(O)=C3C(=O)c4c(O)cccc4[C@@](C)(O)[C@H]3C[C@@H]12 [Tetracycline] | 26 + 0.1 mm | 24 + 0.1 mm |
| CC1(C)S[C@@H]2[C@H](NC(=O)[C@H](C(=O)O)c3ccsc3)C(=O)N2[C@H]1C(=O)O [Ticarcillin] | 25 ± 0.4 mm | 21 + 0.2 mm |
| NC[C@H]1O[C@H](O[C@H]2[C@H](O)[C@@H](O[C@H]3O[C@H](CO)[C@@H](O)[C@H](N)[C@H]3O)[C@H](N)C[C@@H]2N)[C@H](N)C[C@@H]1O [Tobramycin] | 25 ± 0.1 mm | 20 + 0.2 mm |
| COc1cc(Cc2cnc(N)nc2N)cc(OC)c1OC [Ttrimethoprim] | 23 ± 0.1 mm | 25 + 0.2 mm |
| CN[C@H](CC(C)C)C(=O)N[C@H]1C(=O)N[C@@H](CC(N)=O)C(=O)N[C@H]2C(=O)N[C@H]3C(=O)N[C@H](C(=O)N[C@H](C(=O)O)c4cc(O)cc(O)c4-c4cc3ccc4O)[C@H](O)c3ccc(c(Cl)c3)Oc3cc2cc(c3O[C@@H]2O[C@H](CO)[C@@H](O)[C@H](O)[C@H]2O[C@H]2C[C@](C)(N)[C@H](O)[C@H](C)O2)Oc2ccc(cc2Cl)[C@H]1O [Vancomycin] | 12 ± 0.1 mm | 10 ± 0.1 mm |
| Gentamicin | 25 ± 0.3 mm | 19 + 0.2 mm |
| Polymyxin E | 11 + 0.1 mm | 10 + 0.2 mm |
